Values quoted from earlier work, collected in patent US20250339386A1, “VITAMIN K2 FOR USE IN TREATMENT OF CORONARY ARTERY CALCIFICATION” (Region Syddanmark, priority 2022, published 2025).

Key:
[1] = tested on: CAC progression; details: asymptomatic older men and women 60-80 years, with recommended calcium and vitamin D
[2] = tested on: human monocyte-derived macrophages; details: cells pretreated; dose response relationship
[3] = tested on: aortic valve calcification; details: high-dose supplementation; male subjects with aortic valve calcification score above 300 arbitrary units

For `CC1=C(C/C=C(\C)CCC[C@H](C)CCC[C@H](C)CCCC(C)C)C(=O)c2ccccc2C1=O` [vitamin K1, phylloquinone], the “Progression of existing CAC” value [1] is given as “reduced the progression of existing CAC”.

For `CC(C)=CCC/C(C)=C/CC/C(C)=C/CC/C(C)=C/CC/C(C)=C/CC/C(C)=C/CC/C(C)=C/CC1=C(C)C(=O)c2ccccc2C1=O` [menaquinone-7], the “Cytokine release (TNF-α, IL-1α, IL-1β)” value [2] is listed as “inhibition of cytokine release”.

In the case of Menaquinone [vitamin K2], the “Aortic valve calcification progression” value [3] is given as “non-significantly decreased”.
